US5747462A, “Pharmaceutically active compounds and their use” (priority 1995, dated 1998)

Test: quantitative evaluation of intradermoplantar edema induced by lambda-carrageenan in guinea pigs (plethysmometer)
Conditions: for anti-inflammatory effect with respect to the carrageenan standard (S2): p<0.000, one way variance analysis and Tukey's multiple comparisons, at the experimental doses used
Protocol: This inoculation initiates an inflammatory process defined as the standard inflammatory constant of all the preclinical trials.
The comparative evaluation is performed by measuring with a plethysmometer the change in volume in milliliters of mercury and expressing the results in absolute volume (ml) and relative percentage (°/l or %) values versus the variable of time in hours (h).
The inflammatory response is induced by inoculating carrageenan into the animal's plantar pad, and the change in volume is measured with a plethysmometer in milliliters of mercury.
The technique employed is adapted to a biological model of guinea pigs, and evaluates the intensity of the edema as the increase or decrease in the proportion of relative inflamed volume. The equation which describes this variable is: postinoculation volume minus preinoculation control volume divided by preinoculation control volume.
The method of measurement is composed of three basic steps:
Measurement of the clinical parameter inflammation volume obtained on inoculating an inflammatory noxa. This procedure constitutes the inflammatory standard (inflammatory control).
Measurement of the change in the clinical parameter inflammation volume by applying to the inflammatory standard a drug recognized as anti-inflammatory reference substance (anti-inflammatory control).
Measurement of the change in the clinical parameter inflammation volume by applying to the inflammatory standard an anti-inflammatory composition and/or subcompositions (invention).
Standard (S2): 0.1 ml of the pharmaceutically acceptable injectable formulation containing 1% of lambda-carrageenan, prepared according to standard processes in sterile water for injections and administered via the intradermoplantar route. Single dose of carrageenan between 3.6 and 3.9 mg/kg animal body weight.
Reference substance (P1): 2.0 ml of the pharmaceutically acceptable injectable formulation containing 6.25% of acetylsalicylic acid (ASA), prepared according to standard processes in sterile water for injections and administered intraperitoneally. Single dose of ASA, between 418.1 and 490.2 mg/kg animal body weight.

Structure (SMILES)	% Inflammation (0 h, ASA 418.1-490.2 mg/kg i.p. single dose)	% Inflammation (1 h, ASA 418.1-490.2 mg/kg i.p. single dose)	% Inflammation (2 h, ASA 418.1-490.2 mg/kg i.p. single dose)	% Inflammation (3 h, ASA 418.1-490.2 mg/kg i.p. single dose)	% Inflammation (4 h, ASA 418.1-490.2 mg/kg i.p. single dose)	% Inflammation (5 h, ASA 418.1-490.2 mg/kg i.p. single dose)	% Inflammation (6 h, ASA 418.1-490.2 mg/kg i.p. single dose)	% Inflammation (7 h, ASA 418.1-490.2 mg/kg i.p. single dose)	anti-inflammatory effect with respect to the carrageenan standard (S2)	% Inflammation (0 h, diclofenac sodium 94.8-105.8 mg/kg i.p. single dose)	% Inflammation (1 h, diclofenac sodium 94.8-105.8 mg/kg i.p. single dose)	% Inflammation (2 h, diclofenac sodium 94.8-105.8 mg/kg i.p. single dose)	% Inflammation (5 h, diclofenac sodium 94.8-105.8 mg/kg i.p. single dose)	% Inflammation (6 h, diclofenac sodium 94.8-105.8 mg/kg i.p. single dose)
CC(=O)Oc1ccccc1C(=O)O [ASA (P1), acetylsalicylic acid]	00.000%	05.620%	13.700%	10.450%	12.020%	12.100%	10.450%	09.810%	significant anti-inflammatory effect	–	–	–	–	–
O=C(O)Cc1ccccc1Nc1c(Cl)cccc1Cl [DICLO (P2), diclofenac sodium]	–	–	–	–	–	–	–	–	significant anti-inflammatory effect	00.000%	12.500%	12.600%	11.400%	12.300%
